Target: T1, human CTPS1 (Homo sapiens, UniProt P17812)
T1 construct: FLAG (with GG linker); His8 (with GG linker); purchased Proteros biostructures GmbH
T1 sequence (P17812 1-591): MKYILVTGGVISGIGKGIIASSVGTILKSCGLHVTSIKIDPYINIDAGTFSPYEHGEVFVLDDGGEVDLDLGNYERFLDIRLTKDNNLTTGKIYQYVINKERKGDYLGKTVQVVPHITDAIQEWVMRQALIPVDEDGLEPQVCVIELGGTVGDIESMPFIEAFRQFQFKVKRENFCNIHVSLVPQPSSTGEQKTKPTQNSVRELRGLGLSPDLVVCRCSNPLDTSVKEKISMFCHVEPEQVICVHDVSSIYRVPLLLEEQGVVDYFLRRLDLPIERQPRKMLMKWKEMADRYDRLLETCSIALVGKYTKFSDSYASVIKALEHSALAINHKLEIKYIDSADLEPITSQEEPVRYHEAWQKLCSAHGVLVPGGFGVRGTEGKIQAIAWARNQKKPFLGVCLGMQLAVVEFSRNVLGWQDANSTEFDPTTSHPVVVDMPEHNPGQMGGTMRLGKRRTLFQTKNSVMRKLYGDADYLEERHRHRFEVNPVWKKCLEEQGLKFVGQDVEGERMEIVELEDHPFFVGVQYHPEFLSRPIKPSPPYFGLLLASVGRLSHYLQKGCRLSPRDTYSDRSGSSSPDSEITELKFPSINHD
Assay: RapidFire/MS-based enzyme selectivity assay (human CTPS1 versus CTPS2), CTPS1 isoform
Format: biochemical
Settings: RapidFire/MS IC50 values of CTPS1 and CTPS2
Outline: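 Full-length C-terminal FLAG-His-tagged CTPS1 (1-591) was preincubated 10 min at 25 °C with compound in HEPES pH 8.0 buffer with MgCl2, KCl, DTT and Tween-20. Reactions were started with a 2× mix of ATP 0.3 mM, UTP 0.2 mM, GTP 0.07 mM and L-glutamine 0.1 mM, and run in the linear phase at 25 °C. IC50 comes from the RapidFire-MS ratio of CTP to 13C9-15N3-CTP.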

Compound | Selectivity (fold selectivity between CTPS1 and CTPS2) (Table 15) | Selectivity (fold selectivity between CTPS1 and CTPS2) (Table 17)
CCOc1cncc(-c2ccc(NC(=O)C3(c4ccnc(NS(=O)(=O)C5CC5)n4)CCCC3)nc2)n1 [P136, 1-(2-(cyclopropanesulfonamido)pyrimidin-4-yl)-N-(5-(6-ethoxypyrazin-2-yl)pyridin-2-yl)cyclopentane-1-carboxamide] | +++ (>60 fold (+++)) | –
CCOc1cncc(-c2ccc(NC(=O)C3(c4ccnc(NS(=O)(=O)C5CC5)n4)CCOCC3)c(F)c2)n1 [P143, 4-(2-(cyclopropanesulfonamido)pyrimidin-4-yl)-N-(4-(6-ethoxypyrazin-2-yl)-2-fluorophenyl)tetrahydro-2H-pyran-4-carboxamide] | +++ (>60 fold (+++)) | –
CCOc1cncc(-c2ccc(NC(=O)C(CCOC)c3ccnc(NS(=O)(=O)C4CC4)n3)nc2)n1 (stereo not shown) [P145, 2-(2-(cyclopropanesulfonamido)pyrimidin-4-yl)-N-(5-(6-ethoxypyrazin-2-yl)pyridin-2-yl)-4-methoxybutanamide] | +++ (>60 fold (+++)) | –
CCOc1cncc(-c2ccc(NC(=O)C(CCOC)c3ccnc(NS(=O)(=O)C4CC4)n3)c(F)c2)n1 (stereo not shown) [P146, 2-(2-(cyclopropanesulfonamido)pyrimidin-4-yl)-N-(4-(6-ethoxypyrazin-2-yl)-2-fluorophenyl)-4-methoxybutanamide] | +++ (>60 fold (+++)) | –
CCOc1cncc(-c2ccc(NC(=O)C(F)(CC)c3ccnc(NS(C)(=O)=O)n3)nc2)n1 (stereo not shown) [P151, N-(5-(6-ethoxypyrazin-2-yl)pyridin-2-yl)-2-fluoro-2-(2-(methylsulfonamido)pyrimidin-4-yl)butanamide] | +++ (>60 fold (+++)) | –
CCOc1cncc(-c2cnc(NC(=O)C(CC)c3ccnc(NS(=O)(=O)C4CC4)n3)c(C)c2)n1 (stereo not shown) [P155, 2-(2-(cyclopropanesulfonamido)pyrimidin-4-yl)-N-(5-(6-ethoxypyrazin-2-yl)-3-methylpyridin-2-yl)butanamide] | + (2-30 fold (+)) | –
CCC(C(=O)Nc1ncc(-c2cncc(OC)n2)cc1F)c1ccnc(NS(=O)(=O)C2CC2)n1 (stereo not shown) [P158, 2-(2-(cyclopropanesulfonamido)pyrimidin-4-yl)-N-(3-fluoro-5-(6-methoxypyrazin-2-yl)pyridin-2-yl)butanamide] | + (2-30 fold (+)) | –
CCC(C(=O)Nc1ccc(-c2cncc(OC)n2)cn1)c1ccnc(NS(=O)(=O)C2CC2)n1 (stereo not shown) [P159, 2-(2-(cyclopropanesulfonamido)pyrimidin-4-yl)-N-(5-(6-methoxypyrazin-2-yl)pyridin-2-yl)butanamide] | +++ (>60 fold (+++)) | –
CCOc1cncc(-c2ccc(NC(=O)C(CC)c3ccnc(NS(=O)(=O)C4CC4)n3)c(C)c2)n1 (stereo not shown) [P161, 2-(2-(cyclopropanesulfonamido)pyrimidin-4-yl)-N-(4-(9-ethoxypyrazin-2-yl)-2-methylphenyl)butanamide] | + (2-30 fold (+)) | –
CCOc1cncc(-c2cnc(NC(=O)C(CC)c3ccnc(NS(=O)(=O)C4CC4)n3)c(F)c2)n1 (stereo not shown) [P162, 2-(2-(cyclopropanesulfonamido)pyrimidin-4-yl)-N-(5-(6-ethoxypyrazin-2-yl)-3-fluoropyridin-2-yl)butanamide] | ++ (>30-60 fold (++)) | –
CCOc1cncc(-c2ccc(NC(=O)C(C)(CC)c3ccnc(NS(=O)(=O)C4CC4)n3)nc2)n1 (stereo not shown) [P163, 2-(2-(cyclopropanesulfonamido)pyrimidin-4-yl)-N-(5-(6-ethoxypyrazin-2-yl)pyridin-2-yl)-2-methylbutanamide] | +++ (>60 fold (+++)) | –
CCOc1cncc(-c2ccc(NC(=O)C(OC)c3ccnc(NS(=O)(=O)C4CC4)n3)cc2)n1 (stereo not shown) [P164, 2-(2-(cyclopropanesulfonamido)pyrimidin-4-yl)-N-(4-(6-ethoxypyrazin-2-yl)phenyl)-2-methoxyacetamide] | + (2-30 fold (+)) | –
CCOc1cncc(-c2ccc(NC(=O)C(CC)c3cccc(NS(=O)(=O)C4CC4)n3)nc2)n1 (stereo not shown) [P188, 2-(6-(cyclopropanesulfonamido)pyridin-2-yl)-N-(5-(6-ethoxypyrazin-2-yl)pyridin-2-yl)butanamide] | ++ (>30-60 fold (++)) | –
CCOc1cncc(-c2ccc(NC(=O)C(CC)c3cccc(NS(=O)(=O)C4CC4)n3)cc2)n1 (stereo not shown) [P191, 2-(6-(cyclopropanesulfonamido)pyridin-2-yl)-N-(4-(6-ethoxypyrazin-2-yl)phenyl)butanamide] | ++ (>30-60 fold (++)) | –
CCOc1cncc(-c2ccc(NC(=O)C(C)(C)c3cncc(NS(=O)(=O)C4CC4)n3)nc2)n1 [P195, 2-(6-(cyclopropanesulfonamido)pyrazin-2-yl)-N-(5-(6-ethoxypyrazin-2-yl)pyridin-2-yl)-2-methylpropanamide] | +++ (>60 fold (+++)) | –
CCOc1cncc(-c2ccc(NC(=O)C(C)(C)c3cncc(NS(=O)(=O)C4CC4)n3)cc2)n1 [P196, 2-(6-(cyclopropanesulfonamido)pyrazin-2-yl)-N-(4-(6-ethoxypyrazin-2-yl)phenyl)-2-methylpropanamide] | +++ (>60 fold (+++)) | –
CCOc1cncc(-c2ccc(NC(=O)C3(c4cncc(NS(=O)(=O)C5CC5)n4)CCOCC3)nc2)n1 [P197, 4-(6-(cyclopropanesulfonamido)pyrazin-2-yl)-N-(5-(6-ethoxypyrazin-2-yl)pyridin-2-yl)tetrahydro-2H-pyran-4-carboxmaide] | +++ (>60 fold (+++)) | –
CCOc1cncc(-c2ccc(NC(=O)C(C)(CCOC)c3cncc(NS(=O)(=O)C4CC4)n3)nc2)n1 (stereo not shown) [P198, 2-(6-(cyclopropanesulfonamido)pyrazin-2-yl)-N-(5-(6-ethoxypyrazin-2-yl)pyridin-2-yl)-4-methoxy-2-methylbutanamide] | +++ (>60 fold (+++)) | –
CCOc1cncc(-c2ccc(NC(=O)C(F)(CC)c3cncc(NS(=O)(=O)C4CC4)n3)nc2)n1 (stereo not shown) [P200, 2-(6-(cyclopropanesulfonamido)pyrazin-2-yl)-N-(5-(6-ethoxypyrazin-2-yl)pyridin-2-yl)-2-fluorobutanamide] | ++ (>30-60 fold (++)) | –
CCOc1cncc(-c2ccc(NC(=O)C(CC)c3cncc(NS(=O)(=O)C4CC4)n3)nc2)n1 (stereo not shown) [P201, 2-(6-(cyclopropanesulfonamido)pyrazin-2-yl)-N-(5-(6-ethoxypyrazin-2-yl)pyridin-2-yl)butanamide] | +++ (>60 fold (+++)) | –
CCOc1cncc(-c2ccc(NC(=O)C(CC)c3cncc(NS(=O)(=O)C4CC4)n3)cc2)n1 (stereo not shown) [P202, 2-(6-(cyclopropanesulfonamido)pyrazin-2-yl)-N-(4-(6-ethoxypyrazin-2-yl)phenyl)butanamide] | +++ (>60 fold (+++)) | –
CCOc1cncc(-c2ccc(C(=O)NC(CC)c3ccnc(NS(=O)(=O)C4CC4)n3)c(F)c2)n1 (stereo not shown) [P216, N-(1-(2-(cyclopropanesulfonamido)pyrimidin-4-yl)propyl)-4-(6-ethoxypyrazin-2-yl)-2-fluorobenzamide] | +++ (>60 fold (+++)) | –
CC(C)Oc1cncc(-c2ccc(C(=O)NC(C)(C)c3cncc(NS(=O)(=O)C4CC4)n3)c(F)c2)n1 [P221, N-(2-(6-(cyclopropanesulfonamido)pyrazin-2-yl)propan-2-yl)-2-fluoro-4-(6-isopropoxypyrazin-2-yl)benzamide] | + (2-30 fold (+)) | –
CC(C)(NC(=O)c1ccc(-c2cncc(C(F)(F)F)n2)cc1)c1cncc(NS(=O)(=O)C2CC2)n1 [P222, N-(2-(6-(cyclopropanesulfonamido)pyrazin-2-yl)propan-2-yl)-4-(6-(trifluoromethyl)pyrazin-2-yl)benzamide] | + (2-30 fold (+)) | –
CCOc1cncc(-c2ccc(NC(=O)C3(c4ccnc(NS(=O)(=O)C5CC5)n4)CCC(=O)CC3)nc2)n1 [P226, 1-(2-(Cydopropanesulfonamido)pyrimidin-4-yl)-N-(5-(6-ethoxypyrazin-2-yl)pyridin-2-yl)-4-oxocyclohexanecarboxamide] | – | +++ (>60 fold (+++))
CCOc1cncc(-c2ccc(NC(=O)C3(c4ccnc(NS(=O)(=O)C5CC5)n4)CCC(F)(F)CC3)nc2)n1 [P242] | – | +++ (>60 fold (+++))
CCOc1cncc(-c2ccc(NC(=O)C3(c4ccnc(NS(=O)(=O)C5CC5)n4)CCC4(CC3)OCCO4)nc2)n1 [P244, 8-(2-(cydopropanesulfonamido)pyrimidin-4-yl)-N-(5-(6-ethoxypyrazin-2-yl)pyridin-2-yl)-1,4-dioxaspiro[4.5]decane-8-carboxamide] | – | +++ (>60 fold (+++))
CCOc1cncc(-c2ccc(NC(=O)C3(c4ccnc(NS(=O)(=O)N(C)C)n4)CCOCC3)nc2)n1 [P248] | – | +++ (>60 fold (+++))

From patent US20230086703A1, “N-(4-(5-chloropyridin-3-yl)phenyl)-2-(2-(cyclopropanesulfonamido)pyrimidin-4-yl) butanamide derivatives and related compounds as human CTPS1 inhibitors for the treatment of proliferative diseases” (Step Pharma S.A.S., priority 2019, published 2023)
